Among the data in PubChem BioAssay (NCI) are TGI and GI50 values, retold here.

Among the test systems are HCC-2998 colon; SNB-75 CNS; COLO 205 colon; MDA-MB-435; NCI-H226 lung; KM12 colon; T-47D breast; RPMI-8226 leukemia; HL-60(TB) leukemia; M14 melanoma.
What all share (assay): NCI tumour cell line growth inhibition, 48 h

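All cell lines were grown in 96-well plates and treated with compound for 48 hours. The concentration for 50% growth inhibition is given as GI50. Definition used: TGI = concentration required for complete inhibition of growth.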

`CC(C)(CO)CNc1nc(N)nc(Cl)c1N`: the TGI in the test with HCC-2998 colon, in the test on SNB-75 CNS, with COLO 205 colon, in the test with MDA-MB-435, in the test with NCI-H226 lung and in the test on KM12 colon was greater than 100 µM throughout. Further, in the test on T-47D breast, the TGI is greater than 100 µM.

Regarding `CC[C@]12C=CCN3CCC4(c5cc(N=Nc6ccccc6)c(OC)cc5N(C)[C@H]4[C@@](O)(C(=O)OC)[C@@H]1OC(C)=O)[C@@H]32` (some centres not stated), the TGI worked out at 36.3 µM with HCC-2998 colon; 59.3 µM in the test with RPMI-8226 leukemia; 77.1 µM with COLO 205 colon; 37.9 µM with MDA-MB-435; 38.1 µM in the test with HL-60(TB) leukemia; 51.5 µM in the test on NCI-H226 lung. Besides, the TGI in the test with M14 melanoma turned out to be 43.6 µM; in the test on KM12 colon, 37.7 µM.

Take `Cn1c(=O)c2c(-c3ccccc3)onc2n(C)c1=O`: the TGI in the test on HCC-2998 colon was 90.2 µM; with RPMI-8226 leukemia it was 57.6 µM; with SNB-75 CNS, greater than 100 µM; with COLO 205 colon, greater than 100 µM; with MDA-MB-435, greater than 100 µM; in the test on NCI-H226 lung it was greater than 100 µM. Moreover, the TGI in the test with M14 melanoma, in the test with KM12 colon and in the test on T-47D breast was greater than 100 µM throughout.

For `N#Cc1c(Nc2ccc(F)cc2)[n+]([O-])c2ccc(Cl)cc2[n+]1[O-]`, the TGI is 9.97 µM in the test with RPMI-8226 leukemia; 74.6 µM in the test on SNB-75 CNS; 4.52 µM in the test with COLO 205 colon; greater than 100 µM in the test on MDA-MB-435; 28.8 µM in the test with NCI-H226 lung; 44.2 µM in the test with M14 melanoma. For the same compound, the TGI with KM12 colon is greater than 100 µM; with T-47D breast, 38.9 µM.

In the case of `O=C(c1ccccc1)c1c(C(F)(F)F)n([O-])c2ccccc2[n+]1=O`, the TGI in the test with RPMI-8226 leukemia was 3.34 µM; in the test on SNB-75 CNS it was 2.74 µM; in the test on HL-60(TB) leukemia it was 1.42 µM; with KM12 colon it was 3.89 µM; in the test on T-47D breast, 2.85 µM.

As to `O=C(c1ccc2ccccc2c1)C1S(=O)(=O)OCCOS1(=O)=O`, the TGI in the test with HCC-2998 colon, in the test on RPMI-8226 leukemia, in the test with COLO 205 colon, in the test with MDA-MB-435, in the test with HL-60(TB) leukemia and in the test with M14 melanoma was greater than 100 µM each time. The same compound showed a TGI in the test on KM12 colon greater than 100 µM.

In the case of `CCOC(=O)c1cc2c(OC(C)=O)ccc(OC(C)=O)c2s1`, the TGI in the test on HCC-2998 colon was 22.2 µM; in the test on SNB-75 CNS, 5.62 µM; in the test with COLO 205 colon, 4.81 µM; in the test with MDA-MB-435, 7.38 µM; in the test with HL-60(TB) leukemia, 2.97 µM; with NCI-H226 lung, 55 µM. Further, the values for the TGI in the test with M14 melanoma and in the test with KM12 colon were 3.26 µM and 17.6 µM, respectively.

On to `Cc1cc2ccccc2c[n+]1CC(O)C[n+]1cc2ccccc2cc1C`, for which the TGI in the test on HCC-2998 colon, in the test with RPMI-8226 leukemia, in the test on SNB-75 CNS, with COLO 205 colon, in the test on MDA-MB-435 and in the test with NCI-H226 lung was greater than 100 µM throughout. Also, the TGI in the test with M14 melanoma, in the test on KM12 colon and in the test on T-47D breast was greater than 100 µM in each case.

Consider `O=S1(=O)NNC(=NCc2ccc(Cl)cc2)c2ccccc21`, for which the TGI in the test on HCC-2998 colon, in the test on RPMI-8226 leukemia, in the test on COLO 205 colon, in the test with HL-60(TB) leukemia, in the test with NCI-H226 lung and in the test on M14 melanoma was greater than 100 µM throughout. The compound also registered a TGI in the test with KM12 colon greater than 100 µM.

With `c1ccc(CCN2CCCCCC2)nc1`, the TGI in the test on RPMI-8226 leukemia, with COLO 205 colon, in the test on MDA-MB-435, in the test with NCI-H226 lung, in the test on M14 melanoma and with KM12 colon was greater than 100 µM each time. For the same compound, in the test on T-47D breast, the TGI is greater than 100 µM.

`CN=C(Nn1cnnc1)OC`: the TGI in the test with HCC-2998 colon, in the test on RPMI-8226 leukemia, in the test on COLO 205 colon, in the test with MDA-MB-435, in the test with M14 melanoma and with KM12 colon was greater than 100 µM throughout. In the test on T-47D breast, this compound yielded a TGI greater than 100 µM.

In the case of `COC(=O)C1=C(O)C(C(=O)OC)[C@@]2(O)[C@@H](C(=O)OC)C(c3ccc(OC(=O)/C(=C/c4ccc(Cl)cc4)c4ccc(Cl)cc4)cc3)C[C@@H]1[C@@H]2C(=O)OC` (some centres not stated), the TGI was greater than 100 µM in the test on SNB-75 CNS; 92.6 µM in the test with COLO 205 colon; greater than 100 µM in the test on MDA-MB-435; greater than 100 µM with HL-60(TB) leukemia; 63.9 µM in the test with NCI-H226 lung; 41.8 µM with M14 melanoma. Also, the TGI in the test with KM12 colon and in the test on T-47D breast was greater than 100 µM throughout.

Take `N#Cc1c(NC(=O)c2ccccc2)sc2c1CCC(=O)C2`: the GI50 in the test on HCC-2998 colon is 1.82 µM; with RPMI-8226 leukemia, 0.305 µM; in the test on SNB-75 CNS, 1.64 µM; in the test with COLO 205 colon it was 1.93 µM; in the test on MDA-MB-435 it was 0.594 µM; in the test with HL-60(TB) leukemia it was 0.309 µM. In addition, the GI50 was 2.75 µM in the test with NCI-H226 lung and 0.711 µM in the test on KM12 colon. Besides, the TGI came to 10.3 µM with HCC-2998 colon; 1.32 µM with RPMI-8226 leukemia; 6.2 µM with SNB-75 CNS; 4.46 µM with COLO 205 colon; 3.6 µM in the test with MDA-MB-435; 2.96 µM in the test with HL-60(TB) leukemia. Further, the figures for the TGI in the test with NCI-H226 lung and in the test on KM12 colon were 12.1 µM and 5.22 µM, respectively.

In the case of `COC(=O)c1sc(=S)sc1SCc1ccccc1CSc1sc(=S)sc1C(=O)OC`, the TGI in the test with HCC-2998 colon, in the test with SNB-75 CNS, with COLO 205 colon, with MDA-MB-435, in the test with NCI-H226 lung and with M14 melanoma was greater than 100 µM each time. This compound also showed a TGI with KM12 colon greater than 100 µM.

On to `NC(Cc1cc(I)c(O)c(I)c1)C(=O)O` (configuration not stated), for which the TGI in the test with HCC-2998 colon was greater than 500 µM; in the test on RPMI-8226 leukemia it was greater than 500 µM; with SNB-75 CNS it was greater than 330 µM; with COLO 205 colon it was greater than 500 µM; in the test on HL-60(TB) leukemia, greater than 500 µM; in the test on NCI-H226 lung, greater than 500 µM. Moreover, the TGI in the test with KM12 colon is greater than 500 µM.

Turning to `OC(c1ccc(Cl)cc1)(c1ccc(Cl)cc1)C(O)(c1ccc(Cl)cc1)c1ccc(Cl)cc1`, the GI50 in the test on HCC-2998 colon is 2.56 µM; with RPMI-8226 leukemia, 3.27 µM; in the test with SNB-75 CNS, 4.36 µM; in the test on MDA-MB-435, 2.94 µM; with M14 melanoma, 3.23 µM; with KM12 colon, 4.12 µM. The TGI in the test on HCC-2998 colon, in the test on RPMI-8226 leukemia, with SNB-75 CNS, in the test with MDA-MB-435, in the test on M14 melanoma and in the test on KM12 colon was greater than 100 µM in each case.
